{"source": "paper PMC7486443", "about": "“Generation of Phenothiazine with Potent Anti-TLK1 Activity for Prostate Cancer Therapy” (iScience, 2020)", "assay_in_all_cases": "biochemical", "parameters_in_all_cases": "DiscoverX KINOMEscan scanMAX competition binding panel, single concentration, percent of control; remaining binding: dose or concentration left out as unconfirmed", "conditions_in_all_cases": "KINOMEscan binding, percent of control; read-out: Table S4_SCANMAX REPORT - related to Fig. 1 / Percent Control", "key": {"[1]": {"molecular_target": "T1, ABL1(T315I)-nonphosphorylated (Homo sapiens, UniProt P00519, T315I)", "T1 construct": "nonphosphorylated"}, "AXL": {"molecular_target": "AXL (Homo sapiens, UniProt P30530)"}, "BRAF": {"molecular_target": "BRAF (Homo sapiens, UniProt P15056)"}, "CDK11": {"molecular_target": "T2, CDK11 (Homo sapiens, UniProt Q9BWU1)", "T2 construct": "gene CDK19"}, "CDK2": {"molecular_target": "CDK2 (Homo sapiens, UniProt P24941)"}, "FLT3(D835V)": {"molecular_target": "FLT3(D835V) (Homo sapiens, UniProt P36888, D835V)"}, "FLT3(ITD,F691L)": {"molecular_target": "FLT3(ITD,F691L) (Homo sapiens, UniProt P36888, F691L/ITD)"}, "FYN": {"molecular_target": "FYN (Homo sapiens, UniProt P06241)"}, "HIPK1": {"molecular_target": "HIPK1 (Homo sapiens, UniProt Q86Z02)", "sequence (Q86Z02 whole entry)": "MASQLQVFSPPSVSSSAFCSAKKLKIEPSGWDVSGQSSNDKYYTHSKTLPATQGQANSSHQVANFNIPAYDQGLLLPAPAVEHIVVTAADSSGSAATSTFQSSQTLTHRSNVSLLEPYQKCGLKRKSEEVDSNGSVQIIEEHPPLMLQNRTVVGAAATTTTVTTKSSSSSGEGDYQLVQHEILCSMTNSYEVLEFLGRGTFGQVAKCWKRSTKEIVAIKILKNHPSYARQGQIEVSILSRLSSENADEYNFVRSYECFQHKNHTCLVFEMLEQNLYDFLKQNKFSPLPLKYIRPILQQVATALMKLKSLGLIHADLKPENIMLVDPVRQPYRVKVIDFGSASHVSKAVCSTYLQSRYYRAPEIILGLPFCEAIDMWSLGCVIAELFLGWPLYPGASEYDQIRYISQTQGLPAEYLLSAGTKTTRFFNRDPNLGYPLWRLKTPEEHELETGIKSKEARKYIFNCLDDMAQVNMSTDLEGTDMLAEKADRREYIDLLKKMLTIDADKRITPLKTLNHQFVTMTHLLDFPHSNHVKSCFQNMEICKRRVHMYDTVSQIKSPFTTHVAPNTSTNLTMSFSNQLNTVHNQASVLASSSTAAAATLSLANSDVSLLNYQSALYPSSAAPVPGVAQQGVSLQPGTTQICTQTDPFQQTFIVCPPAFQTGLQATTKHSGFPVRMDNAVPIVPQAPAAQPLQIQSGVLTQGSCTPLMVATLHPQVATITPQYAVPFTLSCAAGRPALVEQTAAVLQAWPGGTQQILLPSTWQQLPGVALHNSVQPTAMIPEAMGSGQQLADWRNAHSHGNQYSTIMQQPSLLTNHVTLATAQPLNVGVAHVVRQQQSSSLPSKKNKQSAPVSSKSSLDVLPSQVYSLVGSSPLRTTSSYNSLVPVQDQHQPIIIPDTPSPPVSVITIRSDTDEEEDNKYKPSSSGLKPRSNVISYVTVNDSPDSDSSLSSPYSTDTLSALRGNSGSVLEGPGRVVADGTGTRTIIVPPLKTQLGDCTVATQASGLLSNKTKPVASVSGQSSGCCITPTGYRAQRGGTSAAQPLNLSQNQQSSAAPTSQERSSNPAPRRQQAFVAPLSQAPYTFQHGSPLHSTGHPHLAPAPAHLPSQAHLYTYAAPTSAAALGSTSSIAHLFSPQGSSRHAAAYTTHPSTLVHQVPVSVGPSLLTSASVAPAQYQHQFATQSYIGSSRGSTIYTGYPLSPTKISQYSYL"}, "HIPK2": {"molecular_target": "HIPK2 (Homo sapiens, UniProt Q9H2X6)"}, "KIT(V559D,T670I)": {"molecular_target": "KIT(V559D,T670I) (Homo sapiens, UniProt P10721, T670I/V559D)", "sequence (P10721 whole entry V559D/T670I)": "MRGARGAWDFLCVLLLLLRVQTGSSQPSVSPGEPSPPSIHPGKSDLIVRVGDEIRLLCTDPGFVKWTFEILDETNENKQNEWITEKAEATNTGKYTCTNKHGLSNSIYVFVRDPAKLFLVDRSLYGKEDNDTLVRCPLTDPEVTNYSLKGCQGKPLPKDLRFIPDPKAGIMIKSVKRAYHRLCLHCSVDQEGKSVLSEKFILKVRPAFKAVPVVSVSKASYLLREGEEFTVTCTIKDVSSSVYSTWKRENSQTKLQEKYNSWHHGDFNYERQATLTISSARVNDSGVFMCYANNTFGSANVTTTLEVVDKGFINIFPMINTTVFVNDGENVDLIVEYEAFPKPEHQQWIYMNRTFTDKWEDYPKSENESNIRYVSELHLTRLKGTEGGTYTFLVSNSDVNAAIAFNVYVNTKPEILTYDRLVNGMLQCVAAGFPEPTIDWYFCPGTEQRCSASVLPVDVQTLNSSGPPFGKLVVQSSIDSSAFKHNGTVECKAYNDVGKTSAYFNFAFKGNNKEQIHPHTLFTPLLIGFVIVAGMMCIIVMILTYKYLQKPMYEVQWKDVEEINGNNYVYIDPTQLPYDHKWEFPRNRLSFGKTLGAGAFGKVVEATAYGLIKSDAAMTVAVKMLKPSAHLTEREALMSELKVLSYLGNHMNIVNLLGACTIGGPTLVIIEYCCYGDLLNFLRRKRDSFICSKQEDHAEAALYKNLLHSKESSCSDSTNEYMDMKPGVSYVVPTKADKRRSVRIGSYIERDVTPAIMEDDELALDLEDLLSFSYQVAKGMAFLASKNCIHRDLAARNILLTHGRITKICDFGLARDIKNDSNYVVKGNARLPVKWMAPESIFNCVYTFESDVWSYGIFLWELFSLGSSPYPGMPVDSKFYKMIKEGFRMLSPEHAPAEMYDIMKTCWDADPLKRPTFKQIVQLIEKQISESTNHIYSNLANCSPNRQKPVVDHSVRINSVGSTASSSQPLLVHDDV"}, "MEK2": {"molecular_target": "T3, MEK2 (Homo sapiens, UniProt P36507)", "T3 construct": "gene MAP2K2"}, "MET": {"molecular_target": "MET (Homo sapiens, UniProt P08581)", "sequence (P08581 whole entry)": "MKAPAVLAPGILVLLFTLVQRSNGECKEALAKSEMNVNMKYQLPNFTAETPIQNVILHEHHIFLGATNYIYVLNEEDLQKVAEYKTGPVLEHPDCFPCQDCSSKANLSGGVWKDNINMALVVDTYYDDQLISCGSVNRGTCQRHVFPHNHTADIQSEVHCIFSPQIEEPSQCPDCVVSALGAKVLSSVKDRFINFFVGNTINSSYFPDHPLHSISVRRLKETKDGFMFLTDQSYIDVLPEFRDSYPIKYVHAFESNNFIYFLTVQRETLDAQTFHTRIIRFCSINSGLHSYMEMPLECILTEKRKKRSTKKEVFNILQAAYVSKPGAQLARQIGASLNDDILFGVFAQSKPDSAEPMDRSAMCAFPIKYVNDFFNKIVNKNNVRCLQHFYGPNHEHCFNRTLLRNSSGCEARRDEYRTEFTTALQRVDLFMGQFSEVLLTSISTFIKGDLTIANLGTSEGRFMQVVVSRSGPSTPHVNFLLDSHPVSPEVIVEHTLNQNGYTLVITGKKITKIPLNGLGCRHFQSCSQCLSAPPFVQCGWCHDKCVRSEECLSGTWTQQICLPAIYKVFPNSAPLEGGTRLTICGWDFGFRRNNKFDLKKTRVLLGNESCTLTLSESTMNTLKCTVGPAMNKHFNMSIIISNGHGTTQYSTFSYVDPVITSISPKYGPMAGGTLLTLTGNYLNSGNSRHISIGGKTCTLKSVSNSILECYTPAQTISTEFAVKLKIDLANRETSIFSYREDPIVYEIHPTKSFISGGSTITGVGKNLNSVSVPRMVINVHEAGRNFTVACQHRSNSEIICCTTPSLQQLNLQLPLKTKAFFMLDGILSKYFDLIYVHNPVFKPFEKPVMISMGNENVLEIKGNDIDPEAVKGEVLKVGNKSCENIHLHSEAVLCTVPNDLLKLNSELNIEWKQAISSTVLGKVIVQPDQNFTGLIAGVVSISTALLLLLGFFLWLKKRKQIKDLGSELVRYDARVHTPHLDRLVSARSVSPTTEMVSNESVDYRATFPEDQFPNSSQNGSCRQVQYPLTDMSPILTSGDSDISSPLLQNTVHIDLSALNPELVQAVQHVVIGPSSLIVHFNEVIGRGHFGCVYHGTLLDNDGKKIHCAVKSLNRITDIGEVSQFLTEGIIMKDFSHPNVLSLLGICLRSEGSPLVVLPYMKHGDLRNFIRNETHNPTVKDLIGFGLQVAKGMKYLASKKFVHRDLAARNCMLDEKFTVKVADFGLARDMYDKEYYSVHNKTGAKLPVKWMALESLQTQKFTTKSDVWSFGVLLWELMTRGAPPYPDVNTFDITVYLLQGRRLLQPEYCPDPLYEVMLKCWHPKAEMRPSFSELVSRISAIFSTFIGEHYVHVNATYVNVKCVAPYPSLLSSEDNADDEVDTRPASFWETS"}, "NEK4": {"molecular_target": "NEK4 (Homo sapiens, UniProt P51957)"}, "PLK3": {"molecular_target": "PLK3 (Homo sapiens, UniProt Q9H4B4)", "sequence (Q9H4B4 whole entry)": "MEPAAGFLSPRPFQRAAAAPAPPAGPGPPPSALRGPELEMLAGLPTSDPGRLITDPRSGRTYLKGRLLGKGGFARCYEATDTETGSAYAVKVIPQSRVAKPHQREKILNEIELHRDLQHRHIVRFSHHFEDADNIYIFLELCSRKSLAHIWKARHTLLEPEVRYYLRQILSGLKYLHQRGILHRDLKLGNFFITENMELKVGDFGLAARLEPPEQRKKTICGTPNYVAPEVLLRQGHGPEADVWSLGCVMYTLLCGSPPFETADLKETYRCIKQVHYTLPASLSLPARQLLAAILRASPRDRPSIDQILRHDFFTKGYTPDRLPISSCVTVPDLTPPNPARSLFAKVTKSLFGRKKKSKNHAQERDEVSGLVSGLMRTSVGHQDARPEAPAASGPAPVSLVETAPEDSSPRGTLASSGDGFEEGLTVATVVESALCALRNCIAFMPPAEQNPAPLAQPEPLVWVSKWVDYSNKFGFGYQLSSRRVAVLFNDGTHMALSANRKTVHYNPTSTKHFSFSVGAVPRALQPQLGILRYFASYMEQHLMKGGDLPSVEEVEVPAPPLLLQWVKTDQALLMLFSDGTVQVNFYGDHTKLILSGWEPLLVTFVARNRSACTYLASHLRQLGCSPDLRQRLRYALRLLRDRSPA"}, "PRKD2": {"molecular_target": "PRKD2 (Homo sapiens, UniProt Q9BZL6)", "sequence (Q9BZL6 whole entry)": "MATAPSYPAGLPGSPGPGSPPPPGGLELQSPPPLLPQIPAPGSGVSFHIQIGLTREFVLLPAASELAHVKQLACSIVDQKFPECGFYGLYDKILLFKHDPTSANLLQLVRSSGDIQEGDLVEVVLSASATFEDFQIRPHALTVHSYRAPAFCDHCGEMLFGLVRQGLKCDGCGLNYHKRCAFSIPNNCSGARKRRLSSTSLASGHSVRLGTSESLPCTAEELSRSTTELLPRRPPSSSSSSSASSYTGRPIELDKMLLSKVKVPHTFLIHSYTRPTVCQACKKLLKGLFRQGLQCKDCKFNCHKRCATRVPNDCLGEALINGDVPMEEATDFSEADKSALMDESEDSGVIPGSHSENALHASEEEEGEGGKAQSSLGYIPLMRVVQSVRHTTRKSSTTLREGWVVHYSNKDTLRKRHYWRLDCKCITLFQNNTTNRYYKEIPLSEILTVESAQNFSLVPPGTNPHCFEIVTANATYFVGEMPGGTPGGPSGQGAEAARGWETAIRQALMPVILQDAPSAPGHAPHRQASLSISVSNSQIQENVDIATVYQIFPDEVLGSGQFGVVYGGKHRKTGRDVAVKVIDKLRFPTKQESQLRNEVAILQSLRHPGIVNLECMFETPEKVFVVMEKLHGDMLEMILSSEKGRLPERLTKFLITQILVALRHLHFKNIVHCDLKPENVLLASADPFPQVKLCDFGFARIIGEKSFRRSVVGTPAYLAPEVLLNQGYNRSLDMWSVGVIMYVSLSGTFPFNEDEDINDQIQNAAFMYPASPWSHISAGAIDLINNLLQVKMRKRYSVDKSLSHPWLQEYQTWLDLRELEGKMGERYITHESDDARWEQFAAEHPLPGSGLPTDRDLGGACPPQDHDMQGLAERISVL"}, "QSK": {"molecular_target": "T4, QSK (Homo sapiens, UniProt Q9Y2K2)", "T4 construct": "gene SIK3"}, "SRC": {"molecular_target": "SRC (Homo sapiens, UniProt P12931)"}}, "data": [{"smiles": "c1ccc2c(c1)Sc1ccccc1N2CCN1CCOCC1", "note": "[J54]", "values": [{"measurement": "remaining binding", "setting": "[1]", "result": 94, "unit": "%"}, {"measurement": "remaining binding", "setting": "AXL", "result": 99, "unit": "%"}, {"measurement": "remaining binding", "setting": "BRAF", "result": 100, "unit": "%"}, {"measurement": "remaining binding", "setting": "CDK11", "result": 81, "unit": "%"}, {"measurement": "remaining binding", "setting": "CDK2", "result": 92, "unit": "%"}, {"measurement": "remaining binding", "setting": "FLT3(D835V)", "result": 46, "unit": "%"}, {"measurement": "remaining binding", "setting": "FLT3(ITD,F691L)", "result": 65, "unit": "%"}, {"measurement": "remaining binding", "setting": "FYN", "result": 100, "unit": "%"}, {"measurement": "remaining binding", "setting": "HIPK1", "result": 85, "unit": "%"}, {"measurement": "remaining binding", "setting": "HIPK2", "result": 100, "unit": "%"}, {"measurement": "remaining binding", "setting": "KIT(V559D,T670I)", "result": 100, "unit": "%"}, {"measurement": "remaining binding", "setting": "MEK2", "result": 100, "unit": "%"}, {"measurement": "remaining binding", "setting": "MET", "result": 92, "unit": "%"}, {"measurement": "remaining binding", "setting": "NEK4", "result": 100, "unit": "%"}, {"measurement": "remaining binding", "setting": "PLK3", "result": 100, "unit": "%"}, {"measurement": "remaining binding", "setting": "PRKD2", "result": 95, "unit": "%"}, {"measurement": "remaining binding", "setting": "QSK", "result": 100, "unit": "%"}, {"measurement": "remaining binding", "setting": "SRC", "result": 96, "unit": "%"}]}]}
